Measured values as given in EP4647069A1, “DRUGS AND COMPOSITIONS FOR USE IN THE TREATMENT OF RETT SYNDROME” (UNIVERSITA' DEGLI STUDI DI TRIESTE, priority 2024, dated 2025).

Experiments:
[1] = system: MeCP2-KO mouse hippocampal neurons; assay: Phenotypic neuronal atrophy screening in miniaturized 96-well cultures, treatment DIV 3 to DIV 6 (MAP2/NeuN, NeuriteQuant); assay type: cell-based; conditions: for total dendritic length (TDL) / terminal branches (EP): individually or in combination; for minimal effective concentration: Mus musculus, Hippocampal neuron, individual drugs, DIV 3 to DIV 6, read-out: minimum effective concentration in the in vitro assays
Method: Three morphological parameters were measured: 1) the area of the neuronal cell body (soma), 2) the total dendritic length (TDL), 3) the number of dendritic endpoints (EP).
The Kruskall-Wallis test was also performed in this phase, in order to compare non-parametric data between more than two groups: *p <0.05, **p<0.01, ***p<0.001.
To quantify the effects of the interactions, the same morphological parameters used to test the individual drugs at DIV 6 were measured, namely total dendritic length (TDL) and the number of terminal branches (EP = Endpoints).

[2] = in vivo; cited from earlier work

| SMILES | total dendritic length (TDL) ([1]; 1 µM, DIV 3 to DIV 6 (fig. 5A, 5B)) | terminal branches (EP) ([1]; 1 µM, DIV 3 to DIV 6 (fig. 5C, 5D)) | minimal effective concentration [1] | total dendritic length (TDL) ([1]; 0.1 µM, DIV 3 to DIV 6 (fig. 6A, 6B)) | terminal branches (EP) ([1]; 0.1 µM, DIV 3 to DIV 6 (fig. 6C, 6D)) | capabilities to penetrate the blood-brain barrier [2] | half-life [2] |
| --- | --- | --- | --- | --- | --- | --- | --- |
| C=C1/C(=C\C=C2/CCC[C@]3(C)[C@@H]([C@H](C)/C=C/[C@@H](O)C4CC4)CC[C@@H]23)C[C@@H](O)C[C@@H]1O [calcipotriene] | no positive effect | no positive effect | 10 µM | – | – | – | – |
| O=c1[nH]c(=O)n([C@H]2C[C@H](O)[C@@H](CO)O2)cc1I [idoxuridine] | – | – | 10 µM | no positive effect | no positive effect | – | – |
| Cc1ccc(C(=O)c2cc(O)c(O)c([N+](=O)[O-])c2)cc1 [tolcapone] | – | – | – | – | – | excellent | 2.9 h |
